In one assay the target is T1, IRAK1 (Homo sapiens, UniProt P51617).
T1 construct: purchased Reaction Biology (RBC HotSpot)
Briefly: RBC HotSpot Kinase Assay, IRAK1. The following applies: isolated kinase enzyme, 33P-ATP, P81 filter-binding. Format: biochemical. The method, boiled down:
(§1)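 Reactions ran in 20 mM Hepes (pH 7.5) containing 10 mM MgCl2, 1 mM EGTA, 0.1 mM Na3VO4, 2 mM DTT, 0.02 mg/ml BSA, 0.01% Brij35 and 1% DMSO, plus required cofactors. Functional activity readout on the expressible enzyme form, sometimes C-terminally truncated or lacking receptor regulatory regions.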

Assay [1] relates to NF-κB-inducible SEAP reporter in THP-1-Blue NF-κB cells. Briefly: NF-kB SEAP reporter assay in THP-1-Blue NF-κB cells. Format: cell-based. The note with it: 24 hours. As to the method: THP-1-Blue NF-κB cells (InvivoGen) carrying a stable integrated NF-κB-inducible secreted embryonic alkaline phosphatase (SEAP) reporter construct were plated at a concentration of 1×10^5 cells per well. The cells were stimulated with Pam3CSK4 (1 ng/mL) or hIL1B (1 ng/mL). After 10-20 minutes, the cells were then treated with vehicle (DMSO) or serial dilutions of the test compounds (10 doses tested for each test compound, with a 1:10 dilution series starting at 1 μM or 3 μM) with a final volume of 200 μL for 24 hours at 37° C. After 24 hours, the cells were centrifuged and 20 μL supernatant was incubated with 180 μL QUANTI-Blue reagent at 37° C. for 30-60 minutes. The levels of NF-κB-induced was measured in a microplate reader at 620 nm.
On the technique in general: A reporter such as luciferase makes a cellular process visible.

In the next assay the test system is MOLM14 D835Y cells. The experiment in a line: MOLM14 D835Y cell viability assay (Cell Titer Glo). Type of assay: cell-based. The note with it: Homo sapiens, MOLM-14, 48 h, cell viability, Cell Titer Glo, 48 hours; read-out: MOLM14 D835Y IC50. The method, boiled down:
(§2)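 Luminescent ATP read-out (CellTiter-Glo, 15 min room temperature) taken 48 h after compound addition. Cells were MOLM14 carrying FLT3 D835Y or F691L mutations, plated at 1000 cells per well.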

For the next assay, the target named is T2, IRAK4 (Homo sapiens, UniProt Q9NWZ3).
T2 sequence (Q9NWZ3 1-460): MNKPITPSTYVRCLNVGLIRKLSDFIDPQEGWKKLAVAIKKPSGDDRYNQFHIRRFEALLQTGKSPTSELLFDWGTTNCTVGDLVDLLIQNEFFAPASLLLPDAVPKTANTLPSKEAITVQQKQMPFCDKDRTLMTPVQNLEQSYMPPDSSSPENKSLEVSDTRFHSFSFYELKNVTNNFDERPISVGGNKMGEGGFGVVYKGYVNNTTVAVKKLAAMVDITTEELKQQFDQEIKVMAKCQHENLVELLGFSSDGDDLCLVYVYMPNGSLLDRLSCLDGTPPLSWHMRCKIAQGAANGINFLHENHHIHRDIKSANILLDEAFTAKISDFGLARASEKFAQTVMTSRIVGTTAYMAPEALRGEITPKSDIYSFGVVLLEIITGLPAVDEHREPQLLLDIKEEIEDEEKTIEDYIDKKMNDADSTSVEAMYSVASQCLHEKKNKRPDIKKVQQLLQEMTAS
The experiment in a line: RBC HotSpot Kinase Assay, IRAK4. Format: biochemical. On the set-up: purchased Reaction Biology (RBC HotSpot). The following applies: isolated kinase enzyme, 33P-ATP, P81 filter-binding. A digest of the protocol: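 Radiometric filter-binding activity assay with isolated recombinant kinase (construct may be truncated or catalytic domain only) in 20 mM Hepes pH 7.5, 10 mM MgCl2, 1 mM EGTA, 2 mM DTT, 1% DMSO. Compound preincubated 20 min with kinase/substrate; reaction started with 33P-ATP, run 2 h at room temperature.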

The next assay deals with T3, FLT3 (Homo sapiens, UniProt P36888).
T3 sequence (P36888 27-993): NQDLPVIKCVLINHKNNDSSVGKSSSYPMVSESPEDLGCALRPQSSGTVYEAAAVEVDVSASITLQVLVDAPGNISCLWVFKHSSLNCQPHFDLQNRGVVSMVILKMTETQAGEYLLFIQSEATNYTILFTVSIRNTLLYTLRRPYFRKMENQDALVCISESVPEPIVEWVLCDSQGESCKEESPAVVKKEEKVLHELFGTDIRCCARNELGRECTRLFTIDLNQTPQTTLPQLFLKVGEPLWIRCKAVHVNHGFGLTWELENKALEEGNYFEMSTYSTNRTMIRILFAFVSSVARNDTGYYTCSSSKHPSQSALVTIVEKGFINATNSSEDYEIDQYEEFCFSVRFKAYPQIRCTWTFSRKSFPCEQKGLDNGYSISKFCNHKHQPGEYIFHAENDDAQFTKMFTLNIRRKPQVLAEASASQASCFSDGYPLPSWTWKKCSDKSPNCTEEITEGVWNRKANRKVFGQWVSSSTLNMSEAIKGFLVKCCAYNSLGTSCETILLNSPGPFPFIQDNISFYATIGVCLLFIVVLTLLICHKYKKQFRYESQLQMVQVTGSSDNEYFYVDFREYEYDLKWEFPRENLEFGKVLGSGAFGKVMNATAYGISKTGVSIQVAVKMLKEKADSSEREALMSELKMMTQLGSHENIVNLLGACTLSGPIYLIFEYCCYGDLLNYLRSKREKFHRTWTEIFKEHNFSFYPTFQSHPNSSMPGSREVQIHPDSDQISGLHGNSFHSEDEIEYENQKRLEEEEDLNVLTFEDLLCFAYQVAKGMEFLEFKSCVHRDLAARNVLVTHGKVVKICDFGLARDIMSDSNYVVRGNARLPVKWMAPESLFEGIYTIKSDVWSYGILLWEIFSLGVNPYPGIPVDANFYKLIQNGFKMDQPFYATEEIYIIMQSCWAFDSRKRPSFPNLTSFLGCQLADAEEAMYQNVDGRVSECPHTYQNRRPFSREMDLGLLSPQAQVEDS
Briefly: RBC HotSpot Kinase Assay, FLT3. Type of assay: biochemical. On the set-up: purchased Reaction Biology (RBC HotSpot). The following applies: isolated kinase enzyme, 33P-ATP, P81 filter-binding. The method, boiled down:
as §1

For a further assay, the system named is MOLM14 F691L cells. The experiment in a line: MOLM14 F691L cell viability assay (Cell Titer Glo). Type of assay: cell-based. The note with it: Homo sapiens, MOLM-14; cell viability, Cell Titer Glo, 48 hours; read-out: MOLM14 F691L IC50. A digest of the protocol:
as §2
For orientation: In ATP-based viability assays light output follows the ATP content of the culture.

[2] abbreviates: THP-1-Blue NF-κB cells stimulated with Pam3CSK4 (1 ng/mL), read-out: NF-κB Pam3SCK4 IC50.
Where [3] appears, read: THP-1-Blue NF-κB cells stimulated with hIL1B (1 ng/mL), read-out: NF-κB IL1B IC50.

Like-named read-outs stand apart in the source and are kept apart here.

These results are taken from US20260226048A1, “MULTI-CYCLIC IRAK AND FLT3 INHIBITING COMPOUNDS AND USES THEREOF” (CHILDREN'S HOSPITAL MEDICAL CENTER, priority 2023, published 2026).

For orientation: IC50 means the point on the concentration scale where inhibition reaches its midpoint.

T1 sequence (P51617 whole entry): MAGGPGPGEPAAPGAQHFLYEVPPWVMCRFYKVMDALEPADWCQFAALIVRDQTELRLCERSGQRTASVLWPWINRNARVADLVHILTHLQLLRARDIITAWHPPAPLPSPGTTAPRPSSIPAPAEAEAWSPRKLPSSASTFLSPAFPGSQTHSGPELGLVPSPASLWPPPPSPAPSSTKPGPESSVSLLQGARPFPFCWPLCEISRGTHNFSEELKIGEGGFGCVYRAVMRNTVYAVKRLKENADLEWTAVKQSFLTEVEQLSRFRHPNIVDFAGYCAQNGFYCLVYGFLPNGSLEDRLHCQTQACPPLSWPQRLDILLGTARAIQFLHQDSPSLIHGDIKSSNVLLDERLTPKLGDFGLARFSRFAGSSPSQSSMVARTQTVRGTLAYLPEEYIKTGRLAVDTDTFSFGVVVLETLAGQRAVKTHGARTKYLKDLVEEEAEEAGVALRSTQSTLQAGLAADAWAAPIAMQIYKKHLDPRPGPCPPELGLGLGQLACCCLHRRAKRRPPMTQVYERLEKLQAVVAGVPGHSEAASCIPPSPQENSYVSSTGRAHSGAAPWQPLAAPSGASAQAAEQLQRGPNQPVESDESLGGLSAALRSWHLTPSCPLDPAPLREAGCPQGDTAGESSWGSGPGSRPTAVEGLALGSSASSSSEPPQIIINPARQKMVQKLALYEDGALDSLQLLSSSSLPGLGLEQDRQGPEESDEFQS

Regarding `C[C@@](O)(c1ccc2ncc(-c3ccnc(N[C@H]4CNCC[C@@H]4F)n3)n2c1)C(F)(F)F` (single isomer, unassigned) [Compound 27a], the IC50 at IRAK1 was 4 nM; in assay [1] (setting [2]), 55 nM; in assay [1] (setting [3]), 52 nM; in the assay with MOLM14 D835Y cells, 18 nM; on IRAK4, 0.7 nM; at FLT3 it was under 0.5 nM.

With `CC(O)(c1ccc2ncc(-c3nc(N[C@@H]4CCCNC4)ncc3F)n2c1)C(F)(F)F` (single isomer, unassigned) [Compound 37a], the IC50 on IRAK1 is 2 nM; in assay [1] (setting [2]) it was 70 nM; in assay [1] (setting [3]), 58 nM; in the assay on MOLM14 D835Y cells it was 32 nM; on IRAK4, 2 nM; at FLT3, under 0.5 nM.

On to `COc1cc2ncc(-c3nc(N[C@@H]4CCCNC4)ncc3F)n2nc1C1CC1` [Compound 3a, (R)-4-(6-cyclopropyl-7-methoxyimidazo[1,2-b]pyridazin-3-yl)-5-fluoro-N-(piperidin-3-yl)pyrimidin-2-amine], for which the IC50 was 2 nM at IRAK1; 40 nM in assay [1] (setting [2]); 58 nM in assay [1] (setting [3]); 1 nM with MOLM14 D835Y cells; 5 nM in the assay on MOLM14 F691L cells; under 0.5 nM on IRAK4. The IC50 at FLT3 is under 0.5 nM.

`F[C@H]1CCNC[C@@H]1Nc1cncc(-c2cnc3cc(OC4CC4)c(C4CC4)nn23)n1` [Compound 13a, 6-(7-cyclopropoxy-6-cyclopropylimidazo[1,2-b]pyridazin-3-yl)-N-((3S,4S)-4-fluoropiperidin-3-yl)pyrazin-2-amine]: the IC50 on IRAK1 is 55 nM; in assay [1] (setting [2]), 512 nM; in assay [1] (setting [3]) it was 334 nM; in the assay on MOLM14 D835Y cells, 115 nM; on IRAK4, 5 nM; on FLT3, under 0.5 nM.

In the case of `COc1cc2ncc(-c3ccnc(N[C@H]4CNCC[C@@H]4F)n3)n2nc1C1CC(F)(F)C1` [Compound 19a, 4-(6-(3,3-difluorocyclobutyl)-7-methoxyimidazo[1,2-b]pyridazin-3-yl)-N-((3S,4S)-4-fluoropiperidin-3-yl)pyrimidin-2-amine], the IC50 was 70 nM on IRAK1; 701 nM in assay [1] (setting [2]); 567 nM in assay [1] (setting [3]); 51 nM in the assay with MOLM14 D835Y cells; 13 nM on IRAK4; under 0.5 nM at FLT3.

For `COc1cc2ncc(-c3nc(N[C@@H]4CCCNC4)ncc3F)n2nc1C1CC(F)(F)C1` [Compound 51a, (R)-4-(6-(3,3-difluorocyclobutyl)-7-methoxyimidazo[1,2-b]pyridazin-3-yl)-5-fluoro-N-(piperidin-3-yl)pyrimidin-2-amine], the 50% inhibitory concentration (IC50) on IRAK1 was 3 nM; in assay [1] (setting [2]) it was 136 nM; in assay [1] (setting [3]), 135 nM; in the assay on MOLM14 D835Y cells it was 9 nM; on IRAK4 it was 3 nM; on FLT3 it was under 0.5 nM.

For the molecule `COc1cc2ncc(-c3nc(N[C@@H]4CCCNC4)ncc3F)n2nc1C12CC(C1)C2` [Compound 68a, (R)-4-(6-(bicyclo[1.1.1]pentan-1-yl)-7-methoxyimidazo[1,2-b]pyridazin-3-yl)-5-fluoro-N-(piperidin-3-yl)pyrimidin-2-amine], the IC50 was determined as 0.9 nM on IRAK1; 144 nM in assay [1] (setting [2]); 108 nM in assay [1] (setting [3]); 3 nM with MOLM14 D835Y cells; 20 nM in the assay with MOLM14 F691L cells; 0.8 nM at IRAK4. Further, at FLT3, the IC50 is under 0.5 nM.

With `Fc1cnc(N[C@H]2CNCC[C@@H]2F)nc1-c1cnc2cnc(C3COC3)cn12` [Compound 117a, 5-fluoro-N-((3S,4S)-4-fluoropiperidin-3-yl)-4-(6-(oxetan-3-yl)imidazo[1,2-a]pyrazin-3-yl)pyrimidin-2-amine], the IC50 was 397 nM on IRAK1; 159 nM with MOLM14 D835Y cells; 1590 nM in the assay on MOLM14 F691L cells; 45 nM on IRAK4; 3 nM on FLT3.

Consider `Fc1cnc(N[C@@H]2CCCNC2)nc1-c1cnc2cnc(C3COC3)cn12` [Compound 118a, (R)-5-fluoro-4-(6-(oxetan-3-yl)imidazo[1,2-a]pyrazin-3-yl)-N-(piperidin-3-yl)pyrimidin-2-amine], for which the IC50 came to 732 nM at IRAK1; 179 nM in the assay on MOLM14 D835Y cells; 3180 nM in the assay with MOLM14 F691L cells; 155 nM on IRAK4; 7 nM at FLT3.

As to `COc1cc2ncc(-c3nc(N[C@H]4CNC[C@@H]4F)ncc3F)n2nc1N1CCS(=O)(=O)CC1` [Compound 123a, 4-(3-(5-fluoro-2-(((3S,4S)-4-fluoropyrrolidin-3-yl)amino)pyrimidin-4-yl)-7-methoxyimidazo[1,2-b]pyridazin-6-yl)thiomorpholine 1,1-dioxide], the IC50 on IRAK1 is 43 nM; with MOLM14 D835Y cells, 63 nM; in the assay with MOLM14 F691L cells it was 1000 nM; on IRAK4, 5 nM; at FLT3, under 0.5 nM.

For `COc1cc2ncc(-c3nc(N[C@@H]4CCCNC4)ncc3F)n2nc1N1CCS(=O)(=O)CC1` [Compound 124a, (R)-4-(3-(5-fluoro-2-(piperidin-3-ylamino)pyrimidin-4-yl)-7-methoxyimidazo[1,2-b]pyridazin-6-yl)thiomorpholine 1,1-dioxide], the IC50 was 123 nM at IRAK1; 90 nM in the assay with MOLM14 D835Y cells; 1130 nM in the assay on MOLM14 F691L cells; 138 nM on IRAK4; 2 nM on FLT3.

On to `COc1cc2ncc(-c3ccnc(N[C@H]4CNCC[C@@H]4F)n3)n2nc1[C@H]1C[C@@H](O)C1` [Compound 127a, (Cis)-3-(3-(2-(((3S,4S)-4-fluoropiperidin-3-yl)amino)pyrimidin-4-yl)-7-methoxyimidazo[1,2-b]pyridazin-6-yl)cyclobutan-1-ol], for which the IC50 was 20 nM on IRAK1; 8 nM in the assay with MOLM14 D835Y cells; 113 nM in the assay on MOLM14 F691L cells; under 0.5 nM at IRAK4; under 0.5 nM at FLT3.
